According to patent US11674172B2, “PIRNA-54265 detection kit used for early screening, diagnosis, curative efficacy monitoring and prognostic evaluation of colorectal cancer” (SUN YAT-SEN UNIVERSITY, priority 2018, dated 2023):

Test system: colorectal cancer cell lines with stably overexpressed or knockdown piR-54265
Experiment: IC50 experiments with chemotherapy drugs on colorectal cancer cell lines with overexpressed or knockdown piR-54265
Format: cell-based
Conditions: for cell chemosensitivity (change of IC50): cells after knocking down piR-54265, versus control; for chemoresistance of the colorectal cancer cells (change of IC50): cells overexpressing piR-54265, versus control
Source text: IC50 experiments with the first-line colorectal cancer chemotherapy drugs 5-FU and L-OHP were respectively performed on colorectal cancer cell lines with stably overexpressed or knockdown piR-54265. Subcutaneous xenograft tumors in nude mice were established using the stable cell lines mentioned above, and when a tumor volume reached 250 mm^3, treatment of intraperitoneal injection with 5-FU or L-OHP was started, and the change of the tumor volume was periodically measured.

cell chemosensitivity (change of IC50) | chemoresistance of the colorectal cancer cells (change of IC50) | Compound
improved | enhanced | O=c1[nH]cc(F)c(=O)[nH]1 [5-FU]
improved | enhanced | N[C@@H]1CCCC[C@H]1N.O=C([O-])C(=O)[O-].[Pt+2] [L-OHP]
